Like-named read-outs stand apart in the source and are kept apart here.
Legend:
[1] = tested on: MCF-7, T47D, DU145, PC3, HepG2 and Panc1 cells; experiment: LC3BII immunoblot in a range of tumor cell lines; assay type: cell-based, human; settings: 10 μM, 24 hours
Method: FIG. 36, comprising FIGS. 36A-36C, illustrates Sigma1 antagonist associated autophagy. FIG. 36A, comprises representative images of translocation of GFP-tagged LC3 (LC3-GFP) into autophagosomes in MDA-MB-468 (MDA468) breast adenocarcinoma cells. Only antagonist-treated MDA-MB-468 cells presented LC3-GFP translocation to autophagosomes: […]. […] The images are representative of at least 80 fields for each treatment condition. FIG. 36B is an image of an immunoblot illustrating the finding that formation of GFP-LC3II the formation of GFP-LC3 positive punctae, an indicator of autophagosome formation. Protein extracts from MDA-MB-468 cells stably transfected with and expressing GFP-LC3, treated for 24 hours with 10 μM of the indicated Sigma1 ligand. FIG. 36C comprises images of immunoblots illustrating that increased levels of the microtubule associated protein light chain 3BII isoform (LC3BII) is another broadly used indicator of activated autophagy. […] Legend: MCF-7 (breast adenocarcinoma), T47D (breast adenocarcinoma), DU145 (prostate adenocarcinoma), PC3 (prostate adenocarcinoma), HepG2 (hepatocellular carcinoma), and Panc1 (pancreatic adenocarcinoma).

MDA-MB-468 cells = experiment: ER stress / UPR marker immunoblots; assay type: cell-based, human; settings: for EC50: mean of two determinations
Method: (§1) Cells were lysed and proteins extracted in a modified RIPA buffer (25 mM Tris-HCl pH 7.6, 150 mM NaCl, 1% NP-40, 1% sodium deoxycholate and 0.1% SDS) supplemented with 10% glycerol (volume/volume), complete protease inhibitor cocktail (Roche), and Halt phosphatase inhibitor cocktail (Pierce). Approximately 10-20 μg of detergent soluble protein were resolved on NOVEX 10-20% polyacrylamide Tris-glycine gels (InVitrogen). Immunoblots were performed in a 20 mM Tris-buffered 137 mM saline solution (pH 7.6) containing 0.1% Tween-20 (polyoxyethylene (20) sorbitan monolaurate) and 5% (weight/volume) blotting grade non-fat dry milk (BioRad). The Lumigen PS-3 enhanced chemiluminescence kit (GE Healthcare) was used to reveal immunoblotted proteins.
Whether Sigma antagonists immediately induce autophagy or whether it is activated downstream of other cellular events was next examined. As Sigma1 is highly enriched in the ER, next examined was whether antagonist treatment could induce ER stress mediated UPR. Components of the IRE1α-JNK1/2 and eIF2α-ATF4 branches of the UPR as well as the UPR-associated ER chaperone, GRP78/BiP, were assayed as indicators of activated UPR.
All of the above-mentioned markers of ER stress were evaluated following treatment with increasing doses of Sigma ligands in order to compare UPR with the dose-responsive activation of autophagy. Sigma1 antagonist, IPAG, activated the UPR in a dose-responsive manner (FIG. 6).

[2] = tested on: MDA-MB-468 breast adenocarcinoma cells; experiment: LC3 lipidation (LC3II) immunoblot; assay type: cell-based, human; settings: 24 hours
Method: as §1
Initially, an established immunoblot-based assay to detect microtubule associated protein light chain 3 (LC3) lipidation was used to test for the activation of autophagy. […] Since transient transfections can produce spurious GFP-LC3 aggregates, stable GFP-LC3 transfected populations of MDA-MB-468 (GFP-LC3) were generated. These cells were treated for 24 hours with increasing concentrations of Sigma receptor antagonists and agonists, and were compared to basal and DMSO treated controls (FIGS. 4B & 4C).

Sigma1 in SKBR3 cells = biological target: T1, Sigma1 in SKBR3 cells (Homo sapiens, UniProt Q99720); experiment: Sigma1 protein level and sub-cellular fractionation; assay type: cell-based; settings: 12-16 hours
T1 construct: endogenous in cells; host or cells: SKBR3
Method: FIG. 66, comprising FIGS. 66A-66H, illustrates the non-limiting mechanism(s) of Sigma1 ligand actions, wherein Sigma ligand treatment induces differential localization of Sigma1. […] FIG. 66B is an immunoblot of the fractions collected from biochemical sub-cellular fractionation assay. […] FIG. 66C is a graph illustrating quantification of bands in FIG. 66B. FIG. 66D is a set of images of confocal immunofluorescence microscopy of Sigma1 in SKBR3 cells treated for 12-16 hours with IPAG. Green signal indicated Sigma1, blue signal (DAPI) indicated nucleus. FIG. 66E is a set of graphs illustrating quantification of fractions collected from biochemical sub-cellular fractionation assay performed using SKBR3 cells. […] Functional and physical association with LC3II and functional interaction with VCP are reported in the literature. FIG. 66H is a set of confocal microscopy images, with evidence of co-localization of poly-ubiquitylated proteins and p62SQSTM. […] The ubiquitin-p62SQSTM co-localization and distribution pattern changed subsequent to IPAG treatment. […] Sigma1 functional related and physical associated proteins were redistributed to the other parts of the cell, especially into autophagosome.

[3] = tested on: MDA-MB-468 and MDA-MB-231 breast adenocarcinoma cells; experiment: Poly-ubiquitylated protein immunoblot, breast adenocarcinoma cells; assay type: cell-based, human; settings: 10 μM, up to 24 hours, MDA-MB-468
Method: FIG. 34A is an image of an immunoblot of MDA-MB-468 breast adenocarcinoma cells treated with 10 μM Sigma1 antagonist (IPAG) for the indicated times, up to 24 hours. Total cell lysates were resolved by SDS-PAGE and immunoblotted with a poly-ubiquitin antibody P4D1. FIG. 34B is an image of an immunoblot of HepG2 hepatocellular carcinoma cells treated for 20 hours with 10 μM of indicated Sigma1 ligands.
FIG. 59, comprising FIGS. 59A-59B, illustrates the finding that the novel Sigma1 ligand JMS-51-58 modulated the ubiquitin proteasome system. FIG. 59A is an image of an immunoblot evaluating the levels of poly-ubiquitylated proteins of MDA-MB-468 breast adenocarcinoma treated for 16 hours with 10 μM of JMS-51-58. FIG. 59B is an image of an immunoblot evaluating the levels of poly-ubiquitylated proteins of MDA-MB-231 breast adenocarcinoma cells treated for 16 hours with 10 μM of JMS-51-58. The levels of poly-ubiquitylated proteins were evaluated by immunoblot.

T1 sequence (Q99720 whole entry): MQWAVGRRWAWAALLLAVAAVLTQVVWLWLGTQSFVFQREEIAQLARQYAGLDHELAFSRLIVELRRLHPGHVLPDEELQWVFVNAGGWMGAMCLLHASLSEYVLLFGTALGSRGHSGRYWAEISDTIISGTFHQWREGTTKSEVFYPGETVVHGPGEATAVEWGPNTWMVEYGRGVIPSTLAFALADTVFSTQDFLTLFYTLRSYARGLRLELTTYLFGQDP

Q: Which results are given for `N=C(Nc1ccc(I)cc1)NC1C2CC3CC(C2)CC1C3` (centres unmarked) [IPAG, 1-(4-iodophenyl)-3-(2-adamantyl)guanidine]?
A: LC3BII levels [1]: salient induction of LC3BII levels; activation of UPR markers at a dose that does not produce autophagosomes (MDA-MB-468 cells; 1 μM, 24 hours): salient activation of at least seven markers of UPR; EC50 (MDA-MB-468 cells; 24 hours, read-out: EC50 for phosphorylation of JNK (Thr183/Tyr185)): 1700 nM; EC50 (MDA-MB-468 cells; Homo sapiens, MDA-MB-468, 24 h, read-out: EC50 for induction of ATF4): 500 nM; EC50 (MDA-MB-468 cells; Homo sapiens, MDA-MB-468, 24 h, read-out: EC50 for induction of IRE1α): 900 nM; EC50 (MDA-MB-468 cells; Homo sapiens, MDA-MB-468, 24 h, read-out: EC50 for phosphorylation of JNK (Thr183/Tyr185)): 1600 nM; EC50 (MDA-MB-468 cells; Homo sapiens, MDA-MB-468, 24 h, read-out: EC50 for phosphorylation of eIF2α (Ser51)): 2300 nM; EC50 (MDA-MB-468 cells; Homo sapiens, MDA-MB-468, 24 h, read-out: EC50 for phosphorylation of p38MAPK (Thr180/Tyr182)): 500 nM; EC50 (MDA-MB-468 cells; Homo sapiens, MDA-MB-468, 24 hours, read-out: EC50 for induction of GRP78/BiP): 1400 nM; conversion of LC3 to LC3II (autophagosome formation) ([2]; 10 μM): converted LC3 to LC3II; EC50 ([2]; Homo sapiens, MDA-MB-468, two independent determinations, read-out: mean EC50 of LC3 lipid conjugation (LC3II induction)): 7000 nM; Sigma1 steady-state protein levels (Sigma1 in SKBR3 cells): Sigma1 steady-state protein levels do not change; Sigma1 sub-cellular distribution (Sigma1 in SKBR3 cells): Sigma1 distribution is altered; levels of ubiquitylated proteins [3]: increased level of ubiquitylated proteins

Reference: US9388126B2, “Sigma receptor ligands and methods of modulating cellular protein homeostasis using same” (Drexel University, priority 2012, dated 2016)
